Laboratory results as given in article PMC7349874, “High Content Screening Using New U2OS Reporter Cell Models Identifies Harmol Hydrochloride as a Selective and Competitive Antagonist of the Androgen Receptor” (Cells, 2020).
Structures can show the parent of a compound that is named as a salt.

Key:
[1] = target: T1, full-length wild-type AR (hAR) (Homo sapiens, UniProt P10275); assay: Transactivation (luciferase) assay in U2OS-hAR-ARE-Luc reporter cells, screen and validation; format: cell-based; conditions: for Results of 1st screen on AR: 0.3, 1, 3, 10 µM, 16 h, hit = AR transcriptional activity changed by more than 50% dose-dependently, <20% effect in control cells
T1 sequence (P10275 1-920): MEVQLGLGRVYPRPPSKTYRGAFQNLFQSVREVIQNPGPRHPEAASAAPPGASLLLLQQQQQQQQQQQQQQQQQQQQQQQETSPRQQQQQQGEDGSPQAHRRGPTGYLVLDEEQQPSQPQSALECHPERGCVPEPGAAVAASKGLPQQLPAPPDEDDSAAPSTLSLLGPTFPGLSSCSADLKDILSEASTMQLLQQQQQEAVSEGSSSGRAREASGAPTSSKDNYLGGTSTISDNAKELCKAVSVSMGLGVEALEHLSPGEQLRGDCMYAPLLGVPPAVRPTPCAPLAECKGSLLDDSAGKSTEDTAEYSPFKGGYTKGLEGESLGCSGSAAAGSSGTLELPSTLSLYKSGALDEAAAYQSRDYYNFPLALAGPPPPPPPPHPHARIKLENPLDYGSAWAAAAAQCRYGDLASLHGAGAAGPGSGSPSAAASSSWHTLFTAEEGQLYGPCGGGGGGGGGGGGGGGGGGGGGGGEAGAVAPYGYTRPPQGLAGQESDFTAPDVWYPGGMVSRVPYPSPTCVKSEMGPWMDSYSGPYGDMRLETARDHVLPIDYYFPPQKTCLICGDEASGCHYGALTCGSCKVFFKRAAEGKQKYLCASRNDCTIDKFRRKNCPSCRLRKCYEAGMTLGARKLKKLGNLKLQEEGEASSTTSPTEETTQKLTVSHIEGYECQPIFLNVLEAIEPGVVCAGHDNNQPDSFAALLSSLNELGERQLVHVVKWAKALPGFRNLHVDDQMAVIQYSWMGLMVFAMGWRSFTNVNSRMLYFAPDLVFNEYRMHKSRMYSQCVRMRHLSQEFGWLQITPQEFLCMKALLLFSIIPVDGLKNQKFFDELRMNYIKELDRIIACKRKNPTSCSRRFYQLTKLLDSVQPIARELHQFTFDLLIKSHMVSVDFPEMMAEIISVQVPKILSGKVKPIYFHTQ
Experimental: U2OS-hAR-ARE(Rad9)-Luc and U2OS-hARv7-ARE(PB)-Luc were then used to screen the Prestwick phytochemical library®, containing 320 natural compounds, at four concentrations (0.3, 1, 3, 10 µM) in duplicate.

[2] = target: T2, full-length AR (Homo sapiens, UniProt P10275); assay: Transactivation assay in DU145 cells transiently overexpressing full-length AR; format: cell-based; conditions: 1 nM R1881
T2 sequence (P10275 1-920): T1 sequence (P10275 1-920)
From the text: transactivation assays as in Fig. 3.
performed in quadruplicate.
(§1) [Harmol Hydrochloride] (M)

[3] = target: T3, AR (Homo sapiens, UniProt P10275); assay: cell-based; format: binding
T3 sequence (P10275 1-920): T1 sequence (P10275 1-920)
Experimental: U2OS hAR-AREluc cells were seeded at a density of 80,000 cells per well in clear-bottomed 96-well plates (Greiner Bio-One, Courtaboeuf, France). […] Cells were then lysed with 50 μL of LSC-cocktail (Emulsifier-Safe, Packard BioScience, Wellesley, MA, USA), and [^3H]-bound radioactivity was counted in scintillation liquid with a microbeta trilux (Perkin Elmer, Wellesley, MA, USA). Non-specific binding was determined in the presence of 300 nM unlabeled R1881. Specific binding was calculated by subtracting non-specific binding from the total binding, and expressed as disintegrations per minute (dpm). […] Relative binding affinities (RBA) were calculated as IC50 ratios between each competitor and R1881. The RBA value for R1881 was arbitrarily set at 100.
Non-specific binding was determined in the presence of 300 nM unlabeled R1881. Specific binding was calculated by subtracting non-specific binding from total binding. Results were plotted as % of maximal [^3H]-labeled R1881 binding as a function of drug concentrations (n = 3 ± SEM).

[4] = system: LNCaP spheroids; conditions: 7 days, up to the highest concentrations used
Experimental: (§2) prostate cancer cells. GAPDH was used as a loading control.
(§3) Spheroids were treated for 7 days with the indicated concentrations of each drug, stained with PI (1 mg/mL) for 30 min and […] was evaluated using the Celigo® imaging system. Results are expressed as mortality ratios as compared to untreated spheroids (set at 1). Each point represent s the m ean ± SEM of 3 […]
(§4) Mortality (ratio/control)
as §1

[5] = system: VCaP spheroids; conditions: 7 days, up to the highest concentrations used
Experimental: as §2, §3, §4, §1

[6] = system: LNCaP cells; assay: Spheroid growth (CellTiter-Glo), LNCaP; conditions: 7 days, 1 nM R1881
[7] = system: U2OS-ARE-Luc control cells; assay: Luciferase activity in U2OS-ARE-Luc control cells; conditions: validation, up to 3 µM, 16 h
[8] = system: GR; assay: GR expression (RT-qPCR and Western blot) in LNCaP cells; conditions: 3 µM, 24 h, 1 nM R1881
Experimental: LNCaP and VCaP cells were seeded in 6-well plates (10^6 and 2 × 10^6 cells per well, respectively) and, 48 h later, complete medium was replaced by charcoal-stripped medium with 5% FBS. Cells were then treated for 24 h with the tested compounds, and RNA extraction was performed using the Quick RNA Miniprep kit (Zymo-Research, Irvine, CA, USA), according to the manufacturer’s protocol. Reverse transcription was performed with 0.5 µg total RNA using the SuperScript III reverse transcriptase kit (ThermoFisher, Waltham, MA, USA), according to the manufacturer’s protocol, in a final volume of 20 µL. The levels of genes transcripts were measured by real time PCR using a LightCycler 480 system (Roche Life Science, Penzberg, Germany) in the presence of SYBRGreen (SYBR® Premix Ex Taq^tm) and the following primers: FKBP5, sense 5′-[sequence]-3′; antisense 5′-[sequence]-3′; PSA, sense 5′-[sequence]-3′; antisense 5′-[sequence]-3′; TMPRSS2, sense 5′-[sequence]-3′, antisense 5′-[sequence]-3′; GR, sense 5′-[sequence]-3′, antisense 5′-[sequence]-3′; HPRT, sense 5′-[sequence]-3′; antisense 5′-[sequence]-3′; GAPDH, sense 5′-[sequence]-3′; antisense 5′-[sequence]-3′. Expression levels were evaluated with the ΔΔCt method and were normalized to GAPDH. Results are expressed as mRNA expression, relative to control (untreated cells), and are the mean ± SEM of 3 independent experiments. […]

[9] = listed as Harmol hydrochloride monohydrate

Cc1nccc2c1[nH]c1cc(O)ccc12 [harmol hydrochloride, Harmol hydrochloride monohydrate]
Nature of AR inhibition (competitive or non-competitive) ([1]; 1 nM versus 100 nM R1881): competitive antagonism
Results of 1st screen on AR [1, 9]: Inhibition
Results of 1st screen on AR ([1]; listed as harmol): active inhibitors of AR transcriptional activity
Results of confirmatory screen (validation of AR inhibition) [1, 9]: Confirmed
Results of confirmatory screen (validation of AR inhibition) ([1]; listed as harmol): could impair the transcriptional activity of AR
Inhibition of AR transactivation [2]: significant inhibition of AR transactivation
Concentration competing with ligand binding relative to enzalutamide [3]: 3.5 fold
IC50 ([3]; 0.3 nM [3H]-R1881, 3 h, 37 °C, read-out: IC50 of competition with [3H]-R1881 for AR binding): 0.54 µM
Cell death (propidium iodide positive cells) versus untreated spheroids [4]: did not significantly affect the number of propidium iodide positive cells
Cell death (propidium iodide positive cells) versus untreated spheroids [5]: did not significantly affect the number of propidium iodide positive cells
Growth of LNCaP spheroids [6]: A similar effect was observed
Effect on luciferase activity in control cells [7]: no effect
Expression of GR at the mRNA and protein levels [8]: neither harmol nor enzalutamide treatment could significantly alter the expression of GR
